How the values were obtained:
PML = target: T1, PML (Homo sapiens, UniProt P29590); assay: Western-blot analysis under non-reducing conditions of PML-transfected CHO cells (disulfide-linked PML complexes); format: cell-based; design: amounts of covalent PML multimers: concentration or dose not given beside the values; conditions: for amounts of covalent PML multimers: short exposure, CHO cells transiently overexpressing PML; for covalent PML homodimers: transiently PML- or PML3KR-transfected cells, non-reducing conditions; for formation of covalent multimers: pretreatment, transiently PML-transfected CHO cells
T1 construct: expressed in transfected cells; host or cells: CHO (transient)
T1 sequence (P29590 1-641 isoform P29590-9): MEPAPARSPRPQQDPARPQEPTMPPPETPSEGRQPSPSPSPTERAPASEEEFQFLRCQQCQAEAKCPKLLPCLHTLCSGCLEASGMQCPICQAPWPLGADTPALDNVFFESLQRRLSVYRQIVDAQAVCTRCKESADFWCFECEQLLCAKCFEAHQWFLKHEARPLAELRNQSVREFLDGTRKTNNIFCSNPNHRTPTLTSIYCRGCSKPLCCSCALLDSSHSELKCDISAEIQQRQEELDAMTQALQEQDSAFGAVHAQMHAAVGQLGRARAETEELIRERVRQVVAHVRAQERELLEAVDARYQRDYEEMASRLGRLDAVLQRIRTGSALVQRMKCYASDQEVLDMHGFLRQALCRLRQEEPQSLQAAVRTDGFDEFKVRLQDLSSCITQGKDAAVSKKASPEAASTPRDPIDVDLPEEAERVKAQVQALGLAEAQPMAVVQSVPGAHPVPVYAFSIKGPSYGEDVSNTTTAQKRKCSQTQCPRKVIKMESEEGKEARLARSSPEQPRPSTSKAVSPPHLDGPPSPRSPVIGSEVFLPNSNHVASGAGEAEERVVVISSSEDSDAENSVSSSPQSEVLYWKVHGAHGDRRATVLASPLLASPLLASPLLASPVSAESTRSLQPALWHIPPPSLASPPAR
Protocol: (§1) HeLa, MRC5, CHO, COS, SaOS and Pml−/− MEF cells were cultured in 10% Fetal calf serum DMEM medium (Gibco). Plasmid transfections were performed in CHO or COS with Effectene transfection reagent (Qiagen). Stable CHO cell lines, expressing the PML isoform, or its mutants, were obtained by cotransfection of pSG5-PMLΔSIM, pSG5-3K/RΔSIM, pSG5-C212A or pSG5-B1 with the Dsp-Hygro vector; selected for 2 weeks in […] hygromycin-containing media. Clones were selected for similar PML expression levels. PML WT, PML C60A, PMLΔCC and PML 3K/R stable expressing cell lines were described previously^25. MRC5 or SaOS were grown on coverslides and treated with 400 U/ml IFNg for 48 h and IFNa for 24 h to induce PML expression. Primary mouse APL blasts were obtained from serially transplanted APLs^16 and then cultured in RPMI medium, 10% FCS supplemented with IL-3, IL-6 and SCF (Gibco). Infection of immortalized pml−/− MEFs or primary progenitors was performed with retroviruses produced by CaCl2 transfection of Plat-E cells by with the MSCV-PML/RARA retroviral vector^16. Pml−/− or +/+ MEF cells were similarly transduced with MSCV-PML or PML mutants.
(§2) As2O3 (Fluka) treatments were performed at 1 mM or 10 mM for 1 h. H2O2 from SIGMA-Aldrich was performed for 30 min at 0.1, 1 or 10 mM as indicated, Phenylarsine oxide (PAO) was purchased from SIGMA, solubilized at 50 mg/ml in DMSO and used at 0.1 mM, 1 mM or 10 mM for 1 h, CdCl2 from Flucka, was used at a final concentration of 10 mM. Cells were treated with 10 mM Lactacystin (Calbiochem) overnight, and with 50 mg/ml ready-made cycloheximide (SIGMA) as indicated. Pre-treatments with 100 mM N-ethyl maleimide (NEM) (SIGMA) for 30 min were carried out before adding As2O3 or H2O2. TC-FlAsH (FlAs) was from Molecular Probes; cells growing on coverslides were treated with 1 mM for 1 h, washed in PBS before PFA fixation. Dithiarsolan-biotin conjugate (arsenic-biotin) was kindly given by Kenneth L. Kirk^53, solubilized in DMSO to a 5 mM stock solution, and used on cell culture at 10 mM for 1 h.
Cell lysates were resolved on 7%, 3 to 10% gradient or 12% SDS-PAGE gels and transferred onto nitrocellulose membranes. Detection was performed with the chemi-luminescent substrate SuperSignal WestPico (Pearce), using previously described home made mouse and chicken anti-hPML antibodies^15,25, the PML isoform-specific antibodies were characterized previously^29. For analysis under non-reducing conditions, b-Mercapto-Ethanol or DTT was omitted from the standard Laemmli buffer. In situ nuclear matrix was prepared as for immunofluorescence, but finally resuspended in Laemmli buffer. Purifications of 6M Guanidium-HCl denatured (His×6)-tagged proteins were done with Ni-NTA-agarose from Qiagen, as previously^25. The purification of the arsenic-bound proteins were performed from As-biotin treated CHO-PML or transiently pSG5-PML wt or C212A transfected COS cells. Cells were lysed in 2% SDS-containing RIPA with Protease Inhibitor Cocktail (PIC) (Roche Applied Science), denatured at 95° C. for 5 min to release nuclear matrix-associated PML. Streptavidin-agarose (Molecular Probes) was added to the […] lysates for 30 min to 1 h, washed three times in RIPA and arsenic bound proteins were eluted in Laemmli buffer.
Intermolecular disulfide bonds were previously implicated in stabilization of the nuclear matrix. […] We then compared total and nuclear matrix extracts from transiently transfected CHO cells under non-reducing conditions and observed that the matrix fraction was dramatically enriched in covalent PML dimers.

PML NBs [1] = target: T2, PML NBs (Homo sapiens, UniProt P29590); assay: NB formation in CHO-PML xenografts in nude mice; format: in vivo; conditions: treatment of nude mice bearing CHO-PML xenografts
T2 construct: expressed in transfected cells
T2 sequence (P29590 1-641 isoform P29590-9): T1 sequence (P29590 1-641 isoform P29590-9)
Protocol: (§3) Mouse experiments were repeated 3 times. Animal handling was done according to the guidelines of institutional animal care committees, using protocols approved by “Comité Régional d'Ethique Expérimentation Animale (CREEA) no 4”. 25 mg/kg Paraquat (SIGMA) was daily intraperitoneally injected in PML/RARA and PML/RARA-S77A leukemic mice^17 (to be fully described elsewhere). In vivo imaging was performed using a Xenogen IVIS100 facility to ensure similar tumor mass pre-treatment. Mice were treated with 150 mg/kg for 1 h before bone marrow cytospins (from FVB/NICO) and […] tumor cryosections (NUDE/SWISS) immuno-histochemistry; CHO-PML xenografts were performed as before^42.
(§4) Disulfide bonds are oxidant-sensitive. […] As ROS status is profoundly altered in cell culture, we examined NBs in vivo in basal conditions and after acute induction of ROS. […] Thus, oxidation-triggered disulfide bonds in PML regulate its partitioning between the nucleoplasm and nuclear matrix associated NBs.
(§5) We next investigated whether oxidants enhance disulfide-bound PML multimerization. […] We thus examined whether paraquat, an acute ROS inducer, would regulate NB formation in vivo, a setting where ROS levels are likely more controlled.

endogenous murine PML = target: T3, endogenous murine PML (Mus musculus, UniProt Q60953); assay: NB formation by endogenous murine PML in bone marrow cells of treated mice; format: in vivo; conditions: normal bone marrow cells of treated mice
T3 construct: from tissue; host or cells: mouse bone marrow cells (cytospins, FVB/NICO mice)
T3 sequence (Q60953 1-885): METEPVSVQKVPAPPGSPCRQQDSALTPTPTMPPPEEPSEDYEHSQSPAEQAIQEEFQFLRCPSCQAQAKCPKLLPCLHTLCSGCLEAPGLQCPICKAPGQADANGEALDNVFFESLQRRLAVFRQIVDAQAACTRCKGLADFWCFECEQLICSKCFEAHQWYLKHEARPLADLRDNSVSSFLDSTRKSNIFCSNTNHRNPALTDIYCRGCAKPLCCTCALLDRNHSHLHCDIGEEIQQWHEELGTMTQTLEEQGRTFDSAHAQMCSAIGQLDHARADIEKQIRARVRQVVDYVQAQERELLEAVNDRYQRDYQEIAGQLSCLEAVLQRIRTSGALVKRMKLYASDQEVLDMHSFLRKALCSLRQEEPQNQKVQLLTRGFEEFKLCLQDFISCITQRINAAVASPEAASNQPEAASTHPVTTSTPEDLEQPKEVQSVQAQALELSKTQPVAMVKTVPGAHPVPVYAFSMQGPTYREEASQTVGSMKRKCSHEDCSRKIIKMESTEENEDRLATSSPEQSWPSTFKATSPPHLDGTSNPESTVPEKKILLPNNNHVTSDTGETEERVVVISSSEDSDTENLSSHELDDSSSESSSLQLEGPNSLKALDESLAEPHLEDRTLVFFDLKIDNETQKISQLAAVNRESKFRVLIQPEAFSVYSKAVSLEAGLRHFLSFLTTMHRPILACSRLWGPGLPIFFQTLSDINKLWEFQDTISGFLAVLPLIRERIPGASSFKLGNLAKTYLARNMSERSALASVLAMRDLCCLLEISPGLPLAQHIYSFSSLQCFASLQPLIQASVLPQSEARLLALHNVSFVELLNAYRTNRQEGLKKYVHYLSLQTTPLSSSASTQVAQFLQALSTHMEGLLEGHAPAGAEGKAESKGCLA
Protocol: as §3, §4, §5

PML NBs [2] = target: T2, PML NBs; assay: PML NBs in cultured cells (CHO-PML), immunofluorescence; format: cell-based
Protocol: as §1, §2
Immunofluorescence, electronic microscopy and antibodies were previously described^15. In situ nuclear matrix preparations were prepared as described^1. Confocal analyses were performed on a LSM510 Meta laser microscope (Carl Zeiss MicroImaging, Inc.) with a plan apochromat 63X N.A.1.4 oil immersion objective and increased resolution images were obtained with deconvolution software (Autodeblur, Image Quant) using blind iterative algorithms.

| SMILES | amounts of covalent PML multimers (PML) | covalent PML homodimers (PML) | NB formation in CHO-PML xenografts (PML NBs [1]) | NB formation by endogenous murine PML (endogenous murine PML) | NBs in cultured cells with strong oxidants (PML NBs [2]) | formation of covalent multimers (PML) | also measured |
| --- | --- | --- | --- | --- | --- | --- | --- |
| O=[As]O[As]=O (centres unmarked) [As2O3] | massively increased | dramatic increase | dramatic increase in NB formation | Enhanced NB formation | – | – | – |
| [Cl][Cd][Cl] [CdCl2] | massively increased | – | – | – | disrupt NBs | – | – |
| OO [H2O2] | massively increased | dramatic increase | – | – | disrupt NBs | – | – |
| CC(=O)N[C@@H](CS)C(=O)O [NAC, N-acetyl cysteine] | – | – | – | – | – | abrogated | abundance of the high molecular weight PML forms (PML; pretreatment of CHO cells prior to PML transfection): dramatic decrease; basal NB formation (PML NBs [2]; CHO-PML cells cultured for 10 days with the ROS scavenger): lost basal NB formation; NBs after wash-out (PML NBs [2]; CHO-PML cells, 3 day wash-out after 10 days culture): NBs were restored |
| CCN1C(=O)C=CC1=O [NEM, N-ethyl maleimide] | – | – | – | – | – | abrogated | As2O3 or H2O2-enhanced homodimer formation (PML; thiol alkylator added with As2O3 or H2O2): abrogated; basal PML NBs (PML NBs [2]; untreated cells / CHO-PML cells, 1 hr treatment): disrupted basal PML NBs |
| C[n+]1ccc(-c2cc[n+](C)cc2)cc1 [Paraquat] | – | – | dramatic increase in NBs | Identical results | – | – | NB formation in CHO-PML xenografts (PML NBs [1]; listed as paraquat): dramatic increase in NB formation; NB formation by endogenous murine PML (endogenous murine PML; listed as paraquat): Enhanced NB formation |

— US9228998B2, “Drug monitoring methods using the promyelocytic leukemia protein as a redox sensor” (Institut National de la Sante et de la Recherche Medicale …, priority 2010, dated 2016)
